Test results taken from patent EP1479388A1, “Ready to use gemcitabin solution concentrates” (STADA ARZNEIMITTEL AG, priority 2003, dated 2004).
In brackets after ≈: the same amount, converted by molar mass. Where a name gives a salt, the structure may show the parent alone. Read-outs that look alike come from different tables or passages of the source.

What was measured:
[1] = cited from earlier work
[2] = Maximum solubility in 66 Vol.-% ethanol after dissolving at 35-45 °C and cooling, HPLC (Beispiel 4); format: physicochemical; conditions: dissolved at 35-45 °C 6 h, cooled, 24 h at 19-23 °C
Protocol: Die maximale Löslichkeit von Gemcitabinhydrochlorid wurde unter weiterer Verwendung von 1 N Natronlauge, Wasser für Injektionszwecke und absolutem Ethanol, in als hierfür optimal erkanntem 66 Vol.-%-igem Anteil bei gesteigerten Lösungstemperaturen (35-45 °C, 6 Stunden Rühren) und anschließendem Abkühlen auf Raumtemperatur (19-23 °C) und 24-stündiger Lagerung bei 19-23 °C ermittelt. Hierbei wurde im partikelfreien Überstand der gelagerten Lösungen mittels HPLC ein Gehalt von 95,1 mg/ml Gemcitabin bzw. 108,3 mg/ml Gemcitabinhydrochlorid bestimmt.

[3] = Saturation concentration of gemcitabine in aqueous-ethanolic solutions, HPLC (Beispiel 3); format: physicochemical; conditions: interpolation (Polynom 6. Grades), ca. 66 Vol.% Ethanolanteil, pH 10 +/-0,5
From the text: Um die Sättigungskonzentration von Gemcitabin in wässrig-ethanolischeh Lösungen zu ermitteln, wurden Gemcitabin-Lösungen mit verschiedenen Volumenanteilen an Ethanol hergestellt und analysiert.
Hierzu wurde Gemcitabinhydrochlorid im Ansatzbehälter vorgelegt, mit einer stöchiometrischen Menge an wässrig gelöstem Alkalisierungsmittel (1 N Natronlauge) versetzt, anschließend mit jeweils 80 % der in Vortests ermittelten erforderlichen Mengen an Wasser für Injektionszwecke als auch mit jeweils erforderlichen Mengen an Ethanol versetzt.
Die im Ansatz enthaltenen Bestandteile wurden anschließend unter 6-stündigem Rühren bei Raumtemperatur (19-23 °C) derart gelöst, dass ein ungelöster Bodensatz an Gemcitabinhydrochlorid im Ansatzbehälter verblieb. Der pH-Wert des Ansatzes wurde potentiometrisch bestimmt und erforderlichenfalls mit 1 N Natronlauge bzw. 1 N Salzsäure auf einen pH-Wert von 10 eingestellt, um mit diesem pH-Wert eine vollständige Umsetzung des Gemcitabinhydrochlorids zur gelösten Gemcitabinbase zu erzielen.
Der Ansatz wurde 24 Stunden bei 19-23 °C gelagert. Der pH-Wert wurde anschließend kontrolliert und nur solche klaren Überstände der Ansätze weiterverarbeitet, deren pH-Werte 10 +/- 0,5 betrugen. Diese wurden dann partikelfrei filtriert und der Gehalt an Gemcitabin per HPLC bestimmt.

SMILES | Löslichkeit des Gemcitabins in Wasser ([1]; pH-Bereich von 2,7 bis 3,3) | Löslichkeit des Gemcitabins in Wasser ([1]; pH-Wert von 5) | Löslichkeit des Gemcitabins in Wasser ([1]; pH-Wert von 7) | Löslichkeit des Gemcitabins in Wasser ([1]; pH-Wert von 9) | solubility at 24 h ([2]; 66 vol% aqueous ethanol, organic solvent or mixture, read-out: maximale Löslichkeit (Gehalt im partikelfreien Überstand)) [mg/mL] | solubility thermodynamic ([3]; 66 vol% aqueous ethanol, pH 10, organic solvent or mixture, read-out: Maximum der Gemcitabin-Löslichkeit) [mg/mL] | maximale Löslichkeit (Gehalt im partikelfreien Überstand) ([2]; 1440 min) | Maximum der Gemcitabin-Löslichkeit [3] [mg/mL]
Nc1ccn([C@@H]2O[C@H](CO)[C@@H](O)C2(F)F)c(=O)n1 [Gemcitabin, 2'-Deoxy-2',2'-difluorcytidin] | ca. 38 mg/ml | 16,0 mg/ml | 15,3 mg/ml | 15,8 mg/ml | 95.1 (≈ 361 mM) | 50 (≈ 190 mM) |  | 
Nc1ccn([C@@H]2O[C@H](CO)[C@@H](O)C2(F)F)c(=O)n1 [Gemcitabinhydrochlorid] |  |  |  |  |  |  | 108,3 mg/ml | 55
